Patent US8168647B2, “Vinblastine derivatives, their preparation, use and pharmaceutical compositions comprising the said derivatives” (Shanghai Institute of Materia Medica Chinese Academy of …, priority 2007, dated 2012)
Where a name gives a salt, the structure may show the parent alone. Read-outs that look alike come from different tables or passages of the source. Marks after values point to notes of the source that are not given here.

Columns and labels:
[1] = test system: human non-small cell lung cancer (A549) xenografts; details: mouse, in vivo
[2] = test system: human cervical carcinoma cell line Hela; assay: In vitro cytotoxicity assay, Sulforhodamine B (SRB), Hela; type: cell-based; details: Homo sapiens, HeLa
[3] = test system: human non-small cell lung cancer (A549) xenografts; assay: Nude mice models bearing human non-small cell lung cancer (A549) xenografts; details: for toxicity in the mice (in words) / efficacy against A549 xenografts (in words): iv
sarcoma 180 = assay: In vivo antitumor assay on Sarcoma 180 (S180) in mice; details: for inhibition in vivo at 10 mg/kg / inhibition in vivo at 20 mg/kg / inhibition in vivo at 40 mg/kg: Mus musculus, Sarcoma-180, iv
[4] = test system: human non-small cell lung cancer cell line A-549; assay: In vitro cytotoxicity assay, Sulforhodamine B (SRB), A-549; type: cell-based; details: for IC50: Homo sapiens
[5] = depending on its concentration and action time; read-out: IC50, in vitro activity; cited from earlier work
[6] = BM48 tartrate once at d0, vinorelbine tartrate twice at d0 and d4
[7] = 72 h, read-out: Hela (IC50, nM)
[8] = read-out: Inhibition rate %, 10 mg/kg, iv, d 1, 4
[9] = read-out: Inhibition rate %, 20 mg/kg, iv d 1
[10] = A549, 72 h, read-out: A549 (IC50, nM)
[11] = 1.5 mg/kg iv once at d0, dn: 12 days after the first administration
[12] = 3 mg/kg iv once at d0, dn: 12 days after the first administration
[13] = 6 mg/kg iv once at d0, dn: 12 days after the first administration
[14] = read-out: Inhibition rate %, 20 mg/kg, iv, d 1, 4
[15] = read-out: Inhibition rate %, 40 mg/kg, iv, d 1, 4

Row | Compound | Average weight (g) At sacrifice (sarcoma 180; 10 mg/kg, iv, d 1, 4) [g] | Tumor Weight (g) X ± SD (sarcoma 180; 10 mg/kg, iv, d 1, 4) [g] | IC50 [2, 7] [nM] | Average weight (g) At sacrifice (sarcoma 180; 20 mg/kg, iv d 1) [g] | Tumor Weight (g) X ± SD (sarcoma 180; 20 mg/kg, iv d 1) [g] | inhibition in vivo at 10 mg/kg (sarcoma 180; [8]) [%] | inhibition in vivo at 20 mg/kg (sarcoma 180; [9]) [%] | cell-based efficacy, inhibition of tumor cell proliferation (in words) [4] | IC50 [4, 10] [nM] | Average weight (g) At sacrifice (sarcoma 180; 20 mg/kg, iv, d 1, 4) [g] | Tumor Weight (g) X ± SD (sarcoma 180; 20 mg/kg, iv, d 1, 4) [g] | Average weight (g) At sacrifice (sarcoma 180; 40 mg/kg, iv, d 1, 4) [g] | Tumor Weight (g) X ± SD (sarcoma 180; 40 mg/kg, iv, d 1, 4) [g] | inhibition in vivo at 20 mg/kg (sarcoma 180; [14]) [%] | inhibition in vivo at 40 mg/kg (sarcoma 180; [15]) [%] | other results
1 | CCC1=C[C@@H]2CN(C1)Cc1c([nH]c3ccccc13)[C@@](C(=O)OC)(c1cc3c(cc1OC)N(C)[C@H]1[C@@](O)(C(=O)OC)[C@H](OC(C)=O)[C@]4(CC)C=CCN5CC[C@]31[C@@H]54)C2 [Vinorelbine tartrate, vinorelbine tartrate, reference compound] | 27.5 | 0.60 ± 0.23 | – | – | – | – | – | – | – | – | – | – | – | – | – | Body weight (g) dn [1]: 16.4 g; IC50 ([2]; SRB assay, 72 hours incubation, ditartrate of all compounds used, read-out: Hela (IC50)): 9.1 nM; toxicity in the mice (in words) [3, 6]: higher toxicity; RTV x ± SD ([3]; mouse, in vivo): 2.66 ± 1.18; T/C (%) ([3]; mouse, in vivo): 24.1* %; TV (mm^3) x ± SD dn ([3]; mouse, in vivo): 550 ± 206 mm^3; efficacy against A549 xenografts (in words) ([3]; mouse, in vivo): a little better efficacy than BM48 tartrate; inhibition in vivo at 10 mg/kg (sarcoma 180; read-out: Inhibition rate %): 62.5%; IC50 ([4]; A549, SRB assay, 72 hours incubation, ditartrate of all compounds used, read-out: A549 (IC50)): 23.1 nM
2 | CCC(=O)NCC1(O)[C@H](OC(C)=O)[C@]2(CC)C=CCN3CC[C@@]4(c5cc([C@@]6(C(=O)OC)C[C@@H]7C=C(CC)CN(CCc8c6[nH]c6ccccc86)C7)c(OC)cc5N(C)[C@@H]14)[C@@H]32 (stereo partly drawn) [BM27] | 21.4 | 0.25 ± 0.06 | 13.4 | 20.7 | 0.16 ± 0.03 | 84.4 | 90 | excellent cell-based efficacy | 42.9 | – | – | – | – | – | – | –
3 | CCC1=C[C@@H]2CN(CCc3c([nH]c4ccccc34)[C@@](C(=O)OC)(c3cc4c(cc3OC)N(C)[C@H]3C(O)(CNC(=O)OC)[C@H](OC(C)=O)[C@]5(CC)C=CCN6CC[C@]43[C@@H]65)C2)C1 (stereo partly drawn) [BM48] | 27.1 | 0.85 ± 0.11 | 34.8 | 24.2 | 0.35 ± 0.03 | 46.9 | 78.1 | excellent cell-based efficacy | 75.3 | – | – | – | – | – | – | T/C (%) ([3]; 1.5 mg/kg iv once at d0): 74.0%; Body weight (g) dn [3, 11]: 21.3 g; TV (mm^3) x ± SD dn [3, 11]: 2080 ± 542 mm^3; RTV x ± SD ([3]; 1.5 mg/kg iv once at d0, relative tumor volume): 8.18 ± 2.20; T/C (%) ([3]; 3 mg/kg iv once at d0): 62.9* %; Body weight (g) dn [3, 12]: 20.4 g; TV (mm^3) x ± SD dn [3, 12]: 1545 ± 410 mm^3; RTV x ± SD ([3]; 3 mg/kg iv once at d0, relative tumor volume): 6.96 ± 1.79; T/C (%) ([3]; 6 mg/kg iv once at d0): 31.5* %; Body weight (g) dn [3, 13]: 18.8 g; TV (mm^3) x ± SD dn [3, 13]: 808 ± 336 mm^3; RTV x ± SD ([3]; 6 mg/kg iv once at d0, relative tumor volume): 3.48 ± 1.83; efficacy against A549 xenografts (in words) [3, 6]: significantly inhibited; toxicity in the mice (in words) [3, 6]: appeared to show toxicity after the administration of BM48, but could recover well later; efficacy against A549 xenografts (in words) ([3]; BM48 tartrate once at d0, vinorelbine tartrate twice at d0 and d4, listed as BM48 tartrate): comparable to or even a little better than vinorelbine tartrate
4 | CC[C@]12C=CCN3CC[C@@]4(c5cc([C@@]6(C(=O)OC)C[C@@H]7C[C@@H](C(C)(F)F)CN(CCc8c6[nH]c6ccccc86)C7)c(OC)cc5N(C)[C@H]4C(O)(CNC(=O)OCC(C)C)[C@@H]1OC(C)=O)[C@@H]32 (stereo partly drawn) [BM80] | – | – | > 1000 | – | – | – | – | – | > 1000 | 34.5 | 1.55 ± 0.34 | 32.5 | 1.58 ± 0.12 | 3.1 | 1.2 | –
5 | CC[C@]12C=CCN3CC[C@@]4(c5cc([C@@]6(C(=O)OC)C[C@@H]7C[C@@H](C(C)(F)F)CN(CCc8c6[nH]c6ccccc86)C7)c(OC)cc5N(C)[C@H]4C(O)(COC(=O)C4CC4)[C@@H]1OC(C)=O)[C@@H]32 (stereo partly drawn) [BM76] | – | – | > 1000 | – | – | – | – | – | > 1000 | 31.4 | 1.20 ± 0.09 | 31.8 | 1.25 ± 0.45 | 25 | 21.9 | –
6 | CCC1=C[C@@H]2CN(CCc3c([nH]c4ccccc34)[C@@](C(=O)OC)(c3cc4c(cc3OC)N(C)[C@H]3C(O)(CNC(=O)c5ccc6c(c5)OCO6)[C@H](OC(C)=O)[C@]5(CC)C=CCN6CC[C@]43C65)C2)C1 (stereo partly drawn) [BM47] | 25.3 | 0.67 ± 0.07 | 19 | 23.3 | 0.54 ± 0.17 | 58.1 | 66.3 | excellent cell-based efficacy | 14.4 | – | – | – | – | – | – | –
7 | CC[C@]12C=CCN3CC[C@@]4(c5cc([C@@]6(C(=O)OC)C[C@@H]7C[C@@H](C(C)(F)F)CN(CCc8c6[nH]c6ccccc86)C7)c(OC)cc5N(C)[C@H]4C(O)(COC(C)=O)[C@@H]1OC(C)=O)[C@@H]32 (stereo partly drawn) [BM75] | – | – | > 1000 | – | – | – | – | – | > 1000 | 30.9 | 1.53 ± 0.56 | 33.3 | 1.85 ± 0.32 | 4.4 | 0 | –
8 | CCC1=C[C@@H]2CN(CCc3c([nH]c4ccccc34)[C@@](C(=O)OC)(c3cc4c(cc3OC)N(C)[C@H]3C(O)(CNC(=O)OCC(C)C)[C@H](OC(C)=O)[C@]5(CC)C=CCN6CC[C@]43[C@@H]65)C2)C1 (stereo partly drawn) [BM53] | 25.4 | 0.24 ± 0.09 | 7.1 | – | – | 85 | – | excellent cell-based efficacy | 13.7 | – | – | – | – | – | – | –
9 | CCC(=O)NCC1(O)[C@H](OC(C)=O)[C@]2(CC)C=CCN3CC[C@@]4(c5cc([C@@]6(C(=O)OC)C[C@@H]7C[C@@H](C(C)(F)F)CN(CCc8c6[nH]c6ccccc86)C7)c(OC)cc5N(C)[C@@H]14)[C@@H]32 (stereo partly drawn) [BM78] | – | – | > 1000 | – | – | – | – | – | > 1000 | 30.1 | 0.76 ± 0.29 | 29.0 | 0.36 ± 0.11 | 52.5 | 77.5 | Average weight (g) At sacrifice (sarcoma 180; 40 mg/kg, iv d 1): 28.8 g; Tumor Weight (g) X ± SD (sarcoma 180; 40 mg/kg, iv d 1): 0.48 ± 0.15 g; inhibition in vivo at 40 mg/kg (sarcoma 180; read-out: Inhibition rate %, 40 mg/kg, iv d 1): 70%; antitumor activity in vivo (in words) (sarcoma 180; S180 in mice, iv): strong antitumor activity in vivo
10 | CC[C@]12C=CCN3CC[C@@]4(c5cc([C@@]6(C(=O)OC)C[C@@H]7C[C@@H](C(C)(F)F)CN(Cc8c6[nH]c6ccccc86)C7)c(OC)cc5N(C)[C@H]4[C@@](O)(C(=O)OC)[C@@H]1OC(C)=O)[C@@H]32 [Vinflunine, reference compound] | – | – | – | – | – | – | – | – | – | – | – | 28.4 | 0.44 ± 0.13 | – | 72.5 | IC50 [5]: 60 to 300 nM
